Assay results taken from US9938276B2, “6,5-bicyclic octahydropyrrolopyridine orexin receptor antagonists” (Merck Sharp & Dohme Corp., priority 2014, dated 2018).

Assays:
human orexin-2 receptor = human orexin-2 receptor (Homo sapiens (Human), UniProt O43614); experiment: hOX2R FLIPR Ca2+ flux assay; type: cell-based; details: CHO cells expressing the receptor; agonist 70 pM Ala-6,12 human orexin-A
Protocol: In a typical experiment the OX1 and OX2 receptor antagonistic activity of the compounds of the present invention was determined in accordance with the following experimental method. For intracellular calcium measurements, Chinese hamster ovary (CHO) cells expressing the rat orexin-1 receptor or the human orexin-2 receptor, are grown in Iscove's modified DMEM containing 2 mM L-glutamine, […], 1% hypoxanthine-thymidine supplement, 100 U/ml penicillin, 100 μg/ml streptomycin and 10% heat-inactivated fetal calf serum (FCS). The cells are seeded at 20,000 cells/well into Becton-Dickinson black 384-well clear bottom sterile plates coated with poly-D-lysine. All reagents were from GIBCO-Invitrogen Corp. The seeded plates are incubated overnight at 37° C. and 5% CO2. Ala-6,12 human orexin-A as the agonist is prepared as a 1 mM stock solution in 1% bovine serum albumin (BSA) and diluted in assay buffer (HBSS containing 20 mM HEPES, 0.1% BSA and 2.5 mM probenecid, pH7.4) for use in the assay at a final concentration of 70 pM. Test compounds are prepared as 10 mM stock solution in DMSO, then diluted in 384-well plates, first in DMSO, then assay buffer. On the day of the assay, cells are washed 3 times with 100 μl assay buffer and then incubated for 60 min (37° C., 5% CO2) in 60 μl assay buffer containing 1 μM Fluo-4AM ester, 0.02% pluronic acid, and 1% BSA. The dye loading solution is then aspirated and cells are washed 3 times with 100 μl assay buffer. 30 μl of that same buffer is left in each well. Within the Fluorescent Imaging Plate Reader (FLIPR, Molecular Devices), test compounds are added to the plate in a volume of 25 μl, incubated for 5 min and finally 25 μl of agonist is added. Fluorescence is measured for each well at 1 second intervals for 5 minutes and the height of each fluorescence peak is compared to the height of the fluorescence peak induced by 70 pM Ala-6,12 orexin-A with buffer in place of antagonist. […] Alternatively, compound potency can be assessed by a radioligand binding assay (described in Bergman et. al. Bioorg. Med. Chem. Lett. 2008, 18, 1425-1430) in which the inhibition constant (Ki) is determined in membranes prepared from CHO cells expressing either the OX1 or OX2 receptor. The intrinsic orexin receptor antagonist activity of a compound which may be used in the present invention may be determined by these assays.

hOX1R = hOX1R (Homo sapiens, UniProt O43613); experiment: hOX1R FLIPR Ca2+ flux assay; type: cell-based; details: CHO cells expressing the receptor; agonist 70 pM Ala-6,12 human orexin-A

Sequence of human orexin-2 receptor (O43614 whole entry): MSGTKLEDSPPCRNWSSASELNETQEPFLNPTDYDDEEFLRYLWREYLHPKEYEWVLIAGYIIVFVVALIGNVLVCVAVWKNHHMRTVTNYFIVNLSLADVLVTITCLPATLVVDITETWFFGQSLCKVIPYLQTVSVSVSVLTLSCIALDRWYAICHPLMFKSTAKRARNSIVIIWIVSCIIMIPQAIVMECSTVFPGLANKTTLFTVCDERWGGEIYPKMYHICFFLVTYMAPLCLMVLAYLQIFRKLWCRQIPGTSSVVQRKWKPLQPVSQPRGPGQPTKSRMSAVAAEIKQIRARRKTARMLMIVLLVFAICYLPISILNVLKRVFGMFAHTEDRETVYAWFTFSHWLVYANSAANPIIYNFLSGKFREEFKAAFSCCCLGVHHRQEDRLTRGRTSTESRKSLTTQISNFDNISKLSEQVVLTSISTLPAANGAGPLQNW

Compound: N#Cc1ccnc(N2CC[C@@H]3CCN(C(=O)c4cccnc4OCC(F)F)C[C@@H]32)c1 [Example D1, 2-((3aR,7aR)-6-(2-(2,2-difluoroethoxy)nicotinoyl)octahydro-1H-pyrrolo[2,3-c]pyridin-1-yl)isonicotinonitrile]
- IC50 (human orexin-2 receptor): 147 nM
- IC50 (hOX1R): 10000 nM

Compound: CCOc1ccccc1C(=O)N1CC[C@H]2CCN(c3cc(C#N)ccn3)[C@H]2C1 [Example E1, 2-((3aR,7aR)-6-(2-ethoxybenzol)octahydro-1H-pyrrolo[2,3-c]pyridin-1-yl)isonicotinonitrile]
- IC50 (human orexin-2 receptor): 110 nM
- IC50 (hOX1R): 10000 nM

Compound: CCCc1ccccc1C(=O)N1CC[C@H]2CCN(c3cc(C#N)ccn3)[C@H]2C1 [Example E2, 2-((3aR, 7aR)-6-(2-propylbenzoyl)octahydro-1H-pyrrolo[2,3-c]pyridin-1-yl)isonicotinonitrile]
- IC50 (human orexin-2 receptor): 59.4 nM
- IC50 (hOX1R): 10000 nM

Compound: N#Cc1ccnc(N2CC[C@@H]3CCN(C(=O)c4ccccc4CC(F)(F)F)C[C@@H]32)c1 [Example E3, 2-((3aR, 7aR)-6-(2-(2,2,2-trifluoroethyl)benzoyl)octahydro-1H-pyrrolo[2,3-c]pyridin-1-yl)isonicotinonitrile]
- IC50 (human orexin-2 receptor): 48.1 nM
- IC50 (hOX1R): 10000 nM

Compound: N#Cc1ccnc(N2CC[C@@H]3CCN(C(=O)c4ccc(F)cc4-n4nccn4)C[C@@H]32)c1 [Example E4, 2-((3aR, 7aR)-6-(4-fluoro-2(2H-1,2,3-triazol-2-yl)benzoyl)octahydro-1H-pyrrolo[2,3-c]pyridin-1-yl)isonicotinonitrile]
- IC50 (human orexin-2 receptor): 62.7 nM
- IC50 (hOX1R): ≥ 10000 nM

Compound: N#Cc1ccnc(N2CC[C@@H]3CCN(C(=O)c4cccnc4-c4ccccc4)C[C@@H]32)c1 [Example E5, 2-((3aR, 7aR)-6-(2-phenylnicotinoyl)octahydro-1H-pyrrolo[2,3-c]pyridin-1-yl)isonicotinonitrile]
- IC50 (human orexin-2 receptor): 93.8 nM
- IC50 (hOX1R): 10000 nM

Compound: CCOc1ncccc1C(=O)N1CC[C@H]2CCN(c3cc(C#N)ccn3)[C@H]2C1 [Example E6, 2-{(3aR, 7aR)-6-[(2-ethoxypyridin-3-yl)carbonyl]octahydro-1H-pyrrolo[2,3-c]pyridin-1-yl}pyridine-4-carbonitrile]
- IC50 (human orexin-2 receptor): 1150 nM
- IC50 (hOX1R): 10000 nM

Compound: N#Cc1ccnc(N2CC[C@@H]3CCN(C(=O)c4cccnc4OCC(F)(F)F)C[C@@H]32)c1 [Example E7, 2-[(3aR, 7aR)-6-{[2-(2,2,2-trifluoroethoxy)pyridin-3-yl]carbonyl}octahydro-1H-pyrrolo[2,3-c]pyridin-1-yl]pyridine-4-carbonitrile]
- IC50 (human orexin-2 receptor): 122 nM
- IC50 (hOX1R): 10000 nM

Compound: N#Cc1ccnc(N2CC[C@@H]3CCN(C(=O)c4ccccc4CC(F)F)C[C@@H]32)c1 [Example E8, 2-[(3aR, 7aR)-6-{[2-(2,2-difluoroethyl)phenyl]carbonyl}octahydro-1H-pyrrolo[2,3-c]pyridin-1-yl]pyridine-4-carbonitrile]
- IC50 (human orexin-2 receptor): 512 nM
- IC50 (hOX1R): 10000 nM

Compound: N#Cc1ccnc(N2CC[C@@H]3CCN(C(=O)c4ccccc4OCC(F)(F)F)C[C@@H]32)c1 [Example E9, 2-[(3aR, 7aR)-6-{[2-(2,2,2-trifluoroethoxy)phenyl]carbonyl}octahydro-1H-pyrrolo[2,3-c]pyridin-1-yl]pyridine-4-carbonitrile]
- IC50 (human orexin-2 receptor): 319 nM
- IC50 (hOX1R): ≥ 10000 nM

Compound: N#Cc1ccnc(N2CC[C@@H]3CCN(C(=O)c4ccccc4OCC(F)F)C[C@@H]32)c1 [Example E10, 2-[(3aR, 7aR)-6-{[2-(2,2-difluoroethoxy)phenyl]carbonyl}octahydro-1H-pyrrolo[2,3-c]pyridin-1-yl]pyridine-4-carbonitrile]
- IC50 (human orexin-2 receptor): 139 nM
- IC50 (hOX1R): 10000 nM

Compound: N#Cc1ccnc(N2CC[C@@H]3CCN(C(=O)c4cccnc4CC(F)(F)F)C[C@@H]32)c1 [Example E11, 2-[(3aR, 7aR)-6-{[2-(2,2,2-trifluoroethyl)pyridin-3-yl]carbonyl}octahydro-1H-pyrrolo[2,3-c]pyridin-1-yl]pyridine-4-carbonitrile]
- IC50 (human orexin-2 receptor): 2110 nM
- IC50 (hOX1R): 10000 nM

Compound: N#Cc1ccnc(N2CC[C@@H]3CCN(C(=O)c4ccccc4C4CC4)C[C@@H]32)c1 [Example E12, 2-{(3aR, 7aR)-6-[(2-cyclopropylphenyl)carbonyl]octahydro-1H-pyrrolo[2,3-c]pyridin-1-yl}pyridine-4-carbonitrile]
- IC50 (human orexin-2 receptor): 81.6 nM
- IC50 (hOX1R): 10000 nM

Compound: COc1ccc(C(=O)N2CC[C@H]3CCN(c4cc(C#N)ccn4)[C@H]3C2)c(C2CC2)n1 [Example E13, 2-{(3aR, 7aR)-6-[(2-cyclopropyl-6-methoxypyridin-3-yl)carbonyl]octahydro-1H-pyrrolo[2,3-c]pyridin-1-yl}pyridine-4-carbonitrile]
- IC50 (human orexin-2 receptor): 980 nM
- IC50 (hOX1R): 10000 nM

Compound: N#Cc1ccnc(N2CC[C@@H]3CCN(C(=O)c4ccccc4-n4cccn4)C[C@@H]32)c1 [Example E14, 2-[(3aR, 7aR)-6-{[2-(1H-pyrazol-1-yl)phenyl]carbonyl}octahydro-1H-pyrrolo[2,3-c]pyridin-1-yl]pyridine-4-carbonitrile]
- IC50 (human orexin-2 receptor): 256 nM
- IC50 (hOX1R): 10000 nM

Compound: N#Cc1ccnc(N2CC[C@@H]3CCN(C(=O)c4ccccc4C4CCC4)C[C@@H]32)c1 [Example E15, 2-{(3aR, 7aR)-6-[(2-cyclobutylphenyl)carbonyl]octahydro-1H-pyrrolo[2,3-c]pyridin-1-yl}pyridine-4-carbonitrile]
- IC50 (human orexin-2 receptor): 31.1 nM
- IC50 (hOX1R): 9720 nM

Compound: N#Cc1ccnc(N2CC[C@@H]3CCN(C(=O)c4ccccc4N4CCCC4)C[C@@H]32)c1 [Example E16, 2-{(3aR, 7aR)-6-[(2-pyrrolidin-1-ylphenyl)carbonyl]octahydro-1H-pyrrolo[2,3-c]pyridin-1-yl}pyridine-4-carbonitrile]
- IC50 (human orexin-2 receptor): 98.9 nM
- IC50 (hOX1R): 10000 nM

Compound: N#Cc1ccnc(N2CC[C@@H]3CCN(C(=O)c4nccnc4N4CCCC4)C[C@@H]32)c1 [Example E17, 2-{(3aR, 7aR)-6-[(3-pyrrolidin-1-ylpyrazin-2-yl)carbonyl]octahydro-1H-pyrrolo[2,3-c]pyridin-1-yl}pyridine-4-carbonitrile]
- IC50 (human orexin-2 receptor): 10000 nM
- IC50 (hOX1R): 10000 nM

Compound: N#Cc1ccnc(N2CC[C@@H]3CCN(C(=O)c4ncccc4-c4ccccc4)C[C@@H]32)c1 [Example E18, 2-{(3aR, 7aR)-6-[(3-phenylpyridin-2-yl)carbonyl]octahydro-1H-pyrrolo[2,3-c]pyridin-1-yl}pyridine-4-carbonitrile]
- IC50 (human orexin-2 receptor): 76.9 nM
- IC50 (hOX1R): ≥ 10000 nM

Compound: CC(C)Oc1ncccc1C(=O)N1CC[C@H]2CCN(c3cc(C#N)ccn3)[C@H]2C1 [Example E19, 2-[(3aR, 7aR)-6-{[2-(1-methylethoxy)pyridin-3-yl]carbonyl}octahydro-1H-pyrrolo[2,3-c]pyridin-1-yl]pyridine-4-carbonitrile]
- IC50 (human orexin-2 receptor): 1400 nM
- IC50 (hOX1R): 10000 nM

Compound: N#Cc1ccnc(N2CC[C@@H]3CCN(C(=O)c4ncccc4-n4nccn4)C[C@@H]32)c1 [Example E20, 2-[(3aR, 7aR)-6-{[3-(2H-1,2,3-triazol-2-yl)pyridin-2-yl]carbonyl}octahydro-1H-pyrrolo[2,3-c]pyridin-1-yl]pyridine-4-carbonitrile]
- IC50 (human orexin-2 receptor): 1500 nM
- IC50 (hOX1R): ≥ 10000 nM

Compound: N#Cc1ccnc(N2CC[C@@H]3CCN(C(=O)c4ccccc4OC(F)F)C[C@@H]32)c1 [Example E21, 2-[(3aR, 7aR)-6-{[2-(difluoromethoxy)phenyl]carbonyl}octa-hydro-1H-pyrrolo[2,3-c]pyridin-1-yl]pyridine-4-carbonitrile]
- IC50 (human orexin-2 receptor): 1520 nM
- IC50 (hOX1R): 10000 nM

Compound: N#Cc1ccnc(N2CC[C@@H]3CCN(C(=O)c4ccccc4C4CC4(F)F)C[C@@H]32)c1 (stereo partly drawn) [Example E22, 2-[(3aR, 7aR)-6-{[2-(2,2-difluorocyclopropyl)phenyl]carbonyl}octa-hydro-1H-pyrrolo[2,3-c]pyridin-1-yl]pyridine-4-carbonitrile]
- IC50 (human orexin-2 receptor): 43.8 nM
- IC50 (hOX1R): 10000 nM

Compound: N#Cc1ccnc(N2CC[C@@H]3CCN(C(=O)c4ccccc4-c4ncccn4)C[C@@H]32)c1 [Example E23, 2-{(3aR, 7aR)-6-[(2-pyrimidin-2-ylphenyl)carbonyl]octahydro-1H-pyrrolo[2,3-c]pyridin-1-yl}pyridine-4-carbonitrile]
- IC50 (human orexin-2 receptor): 99.5 nM
- IC50 (hOX1R): ≥ 10000 nM

Compound: NC(=O)c1ccnc(N2CC[C@@H]3CCN(C(=O)c4ccccc4-n4nccn4)C[C@@H]32)c1 [Example F1, 2-((3aR,7aR)-6-(2-(2H-1,2,3-triazol-2-yl)benzoyl)octahydro-1H-pyrrolo[2,3-c]pyridin-1-yl)isonicotinamide]
- IC50 (human orexin-2 receptor): 562 nM
- IC50 (hOX1R): ≥ 10000 nM
